From ChEMBL document CHEMBL1124209, “Phosphonoformate and phosphonoacetate derivatives of 5-substituted 2'-deoxyuridines: synthesis and antiviral activity” (1988)
Values after ≈ are worked out from the molar mass of the structure shown.

Assays:
Type in all cases: functional
[1] = organism: Oryctolagus cuniculus; test: Minimum cytotoxic concentration causing toxic effects on uninfected cells in rabbit
[2] = system: Human alphaherpesvirus 1; test: Minimum inhibitory concentration causing 25% inhibition of cytopathic effect induced by Herpes simplex virus-1 (K979) in HEp-2 cells
[3] = system: Human alphaherpesvirus 1; test: Cumulative mortality in percent of HSV-1 infected mice, after intraperitoneal administration of 0.5 mg/kg of compound
[4] = system: Mus musculus; test: Mean duration of lesions in HSV-1 infected mice, after administration of 0.1 % of compound intracutaneously
[5] = system: Human alphaherpesvirus 1; test: Mean survival time in HSV-1 infected mice, after peroral administration of 5 mg/kg of compound; conditions: route oral
[6] = system: Human alphaherpesvirus 1; test: Minimum inhibitory concentration causing 25% inhibition of cytopathic effect induced by Herpes simplex virus-1 (Brand) in vero cells
[7] = system: Human alphaherpesvirus 2; test: Minimum inhibitory concentration causing 25% inhibition cytopathic effect induced by Herpes simplex virus(HSV) -2 (thymidine kinase deficient) in vero cells
[8] = system: Mus musculus; test: Mean duration of lesions in HSV-1 infected mice, after administration of 0.3 % of compound intracutaneously
[9] = system: Human alphaherpesvirus 2; test: Minimum inhibitory concentration of compound causing 50% inhibition of cytopathic effect induced by HSV-2 in PRK cells
[10] = organism: Oryctolagus cuniculus; test: Minimum cytotoxic concentration of compound causing toxic effects on uninfected cells
[11] = system: Human alphaherpesvirus 1; test: Minimum inhibitory concentration causing 25% inhibition of cytopathic effect induced by Herpes simplex virus(HSV) -1 (thymidine kinase deficient) in vero cells
[12] = system: Human alphaherpesvirus 1; test: Cumulative mortality in percent of HSV-1 infected mice, after peroral administration of 5 mg/kg of compound; conditions: route oral
[13] = system: Human alphaherpesvirus 1; test: Mean survival time in HSV-1 infected mice, after intraperitoneal administration of 0.5 mg/kg of compound
[14] = system: Human alphaherpesvirus 1; test: Minimum inhibitory concentration causing 25% inhibition cytopathic effect induced by Herpes simplex virus(HSV) -1 (thymidine kinase deficient) in HEp-2 cells
[15] = system: Human alphaherpesvirus 1; test: Minimum inhibitory concentration causing 25% inhibition of cytopathic effect induced by herpes simplex virus (HSV)-1 (K979) in vero cells.
[16] = system: Human alphaherpesvirus 1; test: Minimum inhibitory concentration of compound causing 50% inhibition of cytopathic effect induced by HSV-1 in PRK cells
[17] = system: Human alphaherpesvirus 1; test: Minimum inhibitory concentration causing 25% inhibition cytopathic effect induced by Herpes simplex virus-1 (Brand) in HEp-2 cells
[18] = system: Human alphaherpesvirus 1; test: Minimum inhibitory concentration of compound causing 50% inhibition of cytopathic effect induced by HSV-1(thymidine kinase deficient) in PRK cells
[19] = system: Mus musculus; test: Cumulative lesions in HSV-1 infected mice, after administration of 0.1 % of compound intracutaneously
[20] = system: Mus musculus; test: Cumulative lesions in HSV-1 infected mice, after administration of 0.3 % of compound intracutaneously
[21] = system: Human alphaherpesvirus 2; test: Minimum inhibitory concentration causing 25% inhibition of cytopathic effect induced by Herpes simplex virus(HSV) -2 (thymidine kinase deficient) in HEp-2 cells
[22] = system: Mus musculus; test: Cumulative mortality in percent of HSV-1 (KOS strain) infected mice, after peroral administration of 100 mg/kg of compound; conditions: route oral
[23] = system: Human alphaherpesvirus 1; test: Minimum inhibitory concentration causing 50% inhibition of cytopathic effect induced by HSV-1 in PRK cells
[24] = system: Human alphaherpesvirus 1; test: (§1) Minimum inhibitory concentration causing 50% inhibition of cytopathic effect induced by HSV-2 in PRK cells
[25] = system: Human alphaherpesvirus 1; test: Minimum inhibitory concentration causing 50% inhibition of cytopathic effect induced by HSV-1(thymidine kinase deficient) in PRK cells
[26] = system: Mus musculus; test: Cumulative mortality in percent of HSV-1 infected mice, after peroral administration of 100 mg/kg of compound; conditions: route oral
[27] = system: Human alphaherpesvirus 2; test: as §1
[28] = system: Human alphaherpesvirus 1; test: Minimum inhibitory concentration causing 50% inhibition of cytopathic effect induced by HSV-1 (thymidine kinase deficient) in PRK cells
[29] = system: Human alphaherpesvirus 1; test: Mean survival time in HSV-1 infected mice, after peroral administration of 10 mg/kg of compound; conditions: route oral
[30] = system: Human alphaherpesvirus 1; test: Cumulative mortality in percent of HSV-1 infected mice, after intraperitoneal administration of 1 mg/kg of compound
[31] = system: Human alphaherpesvirus 1; test: Cumulative mortality in percent of HSV-1 infected mice, after peroral administration of 1 mg/kg of compound; conditions: route oral
[32] = system: Human alphaherpesvirus 1; test: Cumulative mortality in percent of HSV-1 infected mice, after intraperitoneal administration of 5 mg/kg of compound
[33] = system: Human alphaherpesvirus 1; test: Mean survival time in HSV-1 infected mice, after intraperitoneal administration of 5 mg/kg of compound
[34] = system: Human alphaherpesvirus 1; test: Minimum inhibitory concentration causing 25% inhibition of cytopathic effect induced by Herpes simplex virus(HSV) -1 (thymidine kinase deficient) in HEp-2 cells
[35] = system: Human alphaherpesvirus 1; test: Cumulative mortality in percent of HSV-1 infected mice, after peroral administration of 10 mg/kg of compound; conditions: route oral
[36] = system: Human alphaherpesvirus 1; test: Mean survival time in HSV-1 infected mice, after peroral administration of 1 mg/kg of compound; conditions: route oral
[37] = system: Human alphaherpesvirus 2; test: Minimum inhibitory concentration causing 25% inhibition of cytopathic effect induced by Herpes simplex virus(HSV) -2 (thymidine kinase deficient) in vero cells
[38] = system: Human alphaherpesvirus 1; test: Mean survival time in HSV-1 infected mice, after intraperitoneal administration of 1 mg/kg of compound
[39] = system: Human alphaherpesvirus 1; test: Minimum inhibitory concentration causing 25% inhibition of cytopathic effect induced by Herpes simplex virus(HSV) -1 (Brand) in HEp-2 cells

O=c1[nH]c(=O)n([C@H]2C[C@H](O)[C@@H](CO)O2)cc1CCCl
MTC [1]: 1127 µM | MIC [2]: 10.2 µM (≈ 2.97 µg/mL) | CMP [3]: 35 | MDL [4]: 2.4 days | MST [5]: 19 days | MIC [6]: 0.03 µM (≈ 0.00872 µg/mL) | MIC [7]: > 342 µM | MDL [8]: 0.9 days | MIC [9]: 34.2 µM (≈ 9.94 µg/mL) | MTC [10]: >1366 µM | MIC [11]: 34.2 µM (≈ 9.94 µg/mL) | CMP [12]: 10 | MST [13]: 16.7 days | MIC [14]: > 342 µM | MIC [15]: 102 µM (≈ 29.7 µg/mL) | MIC [16]: 0.3 µM (≈ 0.0872 µg/mL) | MIC [17]: 0.1 µM (≈ 0.0291 µg/mL) | MIC [18]: > 1370 µM | lesions [19]: 40 | lesions [20]: 17 | MIC [21]: > 342 µM

CCOC(=O)CP(=O)(O)OC[C@H]1O[C@@H](n2cc(/C=C/Br)c(=O)[nH]c2=O)C[C@@H]1O
MTC [1]: >=828 uM | CMP [22]: 80 | MIC [23]: 41.4 µM (≈ 20 µg/mL) | MIC [24]: > 828 µM | MIC [25]: > 828 µM

CCOC(=O)P(=O)(O)OC[C@H]1O[C@@H](n2cc(/C=C\Br)c(=O)[nH]c2=O)C[C@@H]1O
MTC [1]: >=81.1 uM | CMP [26]: 70 | MIC [23]: 4.1 µM (≈ 1.92 µg/mL) | MIC [27]: > 81.1 µM | MIC [25]: > 81.1 µM

COC(=O)P(=O)(O)OC[C@H]1O[C@@H](n2cc(/C=C\Br)c(=O)[nH]c2=O)C[C@@H]1O
MTC [1]: >=87.9 uM | CMP [22]: 50 | MIC [23]: 1.5 µM (≈ 0.683 µg/mL) | MIC [27]: > 87.9 µM | MIC [28]: > 87.9 µM

CCOC(=O)CP(=O)(OC)OC[C@H]1O[C@@H](n2cc(I)c(=O)[nH]c2=O)C[C@@H]1O (stereo partly specified)
MTC [1]: 193 µM | MIC [2]: 57.9 µM (≈ 30 µg/mL) | MIC [6]: 1.9 µM (≈ 0.985 µg/mL) | MIC [7]: > 193 µM | MIC [11]: 57.9 µM (≈ 30 µg/mL) | MIC [14]: 1.9 µM (≈ 0.985 µg/mL) | MIC [15]: 57.9 µM (≈ 30 µg/mL) | MIC [17]: 5.8 µM (≈ 3.01 µg/mL) | MIC [21]: 193 µM (≈ 100 µg/mL)

O=C(CP(=O)(O)O)OC[C@H]1O[C@@H](n2cc(CCCl)c(=O)[nH]c2=O)C[C@@H]1O
MTC [1]: 800 µM | MST [29]: 16.3 days | MIC [2]: > 242 µM | CMP [30]: 33 | CMP [3]: 75 | MST [5]: 15.3 days | CMP [31]: 67 | MIC [6]: 24.2 µM (≈ 9.99 µg/mL) | CMP [32]: 17 | MDL [8]: 2.4 days | MST [33]: 18.3 days | MIC [34]: 242 µM (≈ 99.9 µg/mL) | MIC [11]: 72.7 µM (≈ 30 µg/mL) | CMP [12]: 50 | MST [13]: 12.2 days | CMP [35]: 42 | MIC [15]: > 242 µM | MIC [17]: 24.2 µM (≈ 9.99 µg/mL) | MST [36]: 11.8 days | MIC [37]: 72.7 µM (≈ 30 µg/mL) | MST [38]: 16 days | lesions [20]: 40 | MIC [21]: 242 µM (≈ 99.9 µg/mL)

COP(=O)(CC(=O)OC[C@H]1O[C@@H](n2cc(I)c(=O)[nH]c2=O)C[C@@H]1O)OC
MIC [39]: 0.2 µM (≈ 0.101 µg/mL) | MTC [1]: 655 µM | MIC [2]: 198 µM (≈ 99.8 µg/mL) | MIC [6]: 0.6 µM (≈ 0.303 µg/mL) | MIC [34]: > 198 µM | MIC [11]: 2 µM (≈ 1.01 µg/mL) | MIC [15]: 5.9 µM (≈ 2.97 µg/mL) | MIC [37]: 59.5 µM (≈ 30 µg/mL)
